System: HOP-62 complex spheroids with HUVEC/MSC, viability
Test: Anticancer human tumor HOP-62 cell line growth inhibition [RAS];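 note: spheroids exposed to agents for seven days before readout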;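 for viability, T/C: 100% = DMSO vehicle control viability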
Settings: for IC50: curve of first compound; for viability, T/C: stronger effect = lower value
Method in brief: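 Tumour cells grown as complex spheroids with HUVEC endothelial cells and mesenchymal stem cells, treated with RAS pathway inhibitor combinations. Each agent spans half-log steps from near clinical Cmax, or 10 microM where Cmax is unknown.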

[1] = second compound 0.000949 µM, first compound 0.0316 µM
[2] = second compound 0.000949 µM, first compound 0.1 µM
[3] = second compound 0.000949 µM, first compound 0.316 µM
[4] = second compound 0.000949 µM, first compound 1 µM
[5] = second compound 0.003 µM, first compound 0.0316 µM
[6] = second compound 0.003 µM, first compound 0.1 µM
[7] = second compound 0.003 µM, first compound 0.316 µM
[8] = second compound 0.003 µM, first compound 1 µM
[9] = second compound 0.00949 µM, first compound 0.0316 µM
[10] = second compound 0.00949 µM, first compound 0.1 µM
[11] = second compound 0.00949 µM, first compound 0.316 µM
[12] = second compound 0.00949 µM, first compound 1 µM
[13] = second compound 0.03 µM, first compound 0.0316 µM
[14] = second compound 0.03 µM, first compound 0.1 µM
[15] = second compound 0.03 µM, first compound 0.316 µM
[16] = second compound 0.03 µM, first compound 1 µM
[17] = second compound 0.0949 µM, first compound 0.0316 µM
[18] = second compound 0.0949 µM, first compound 0.1 µM
[19] = second compound 0.0949 µM, first compound 0.316 µM
[20] = second compound 0.0949 µM, first compound 1 µM
[21] = second compound 0.3 µM, first compound 0.0316 µM
[22] = second compound 0.3 µM, first compound 0.1 µM
[23] = second compound 0.3 µM, first compound 0.316 µM
[24] = second compound 0.3 µM, first compound 1 µM

CC(=O)OC12COC1CC(O)C1(C)C(=O)C(O)C3=C(C)C(OC(=O)C(O)C(NC(=O)OC(C)(C)C)c4ccccc4)CC(O)(C(OC(=O)c4ccccc4)C21)C3(C)C (centres undefined) + CCn1c(-c2cc(N3CCN(C)CC3)cnc2C(C)OC)c2c3cc(ccc31)-c1csc(n1)CC(NC(=O)C1CC1C)C(=O)N1CCCC(N1)C(=O)OCC(C)(C)C2
IC50 (second compound 0.000949 µM): < 31.6 nM | IC50 (second compound 0.003 µM): < 31.6 nM | IC50 (second compound 0.00949 µM): < 31.6 nM | IC50 (second compound 0.03 µM): < 31.6 nM | IC50 (second compound 0.0949 µM): < 31.6 nM | IC50 (second compound 0.3 µM): < 31.6 nM | viability, T/C [1]: 41.1% | viability, T/C [2]: 34.9% | viability, T/C [3]: 28.9% | viability, T/C [4]: 43.6% | viability, T/C (second compound 0.000949 µM, first compound 3.16 µM): 42.7% | viability, T/C (second compound 0.000949 µM, first compound 10 µM): 42.6% | viability, T/C [5]: 44.1% | viability, T/C [6]: 38.5% | viability, T/C [7]: 33.4% | viability, T/C [8]: 30.6% | viability, T/C (second compound 0.003 µM, first compound 3.16 µM): 36.6% | viability, T/C (second compound 0.003 µM, first compound 10 µM): 35% | viability, T/C [9]: 42.4% | viability, T/C [10]: 28.5% | viability, T/C [11]: 31.5% | viability, T/C [12]: 37% | viability, T/C (second compound 0.00949 µM, first compound 3.16 µM): 35.9% | viability, T/C (second compound 0.00949 µM, first compound 10 µM): 33.4% | viability, T/C [13]: 44.1% | viability, T/C [14]: 35.1% | viability, T/C [15]: 31.1% | viability, T/C [16]: 30.8% | viability, T/C (second compound 0.03 µM, first compound 3.16 µM): 30.4% | viability, T/C (second compound 0.03 µM, first compound 10 µM): 40.1% | viability, T/C [17]: 32.3% | viability, T/C [18]: 33.6% | viability, T/C [19]: 31.5% | viability, T/C [20]: 32.9% | viability, T/C (second compound 0.0949 µM, first compound 3.16 µM): 33.6% | viability, T/C (second compound 0.0949 µM, first compound 10 µM): 32.6% | viability, T/C [21]: 37% | viability, T/C [22]: 30.9% | viability, T/C [23]: 39% | viability, T/C [24]: 31.7% | viability, T/C (second compound 0.3 µM, first compound 3.16 µM): 27.9% | viability, T/C (second compound 0.3 µM, first compound 10 µM): 35.6%

Nc1ccn(C2OC(CO)C(O)C2(F)F)c(=O)n1 (centres undefined) + CCn1c(-c2cc(N3CCN(C)CC3)cnc2C(C)OC)c2c3cc(ccc31)-c1csc(n1)CC(NC(=O)C1CC1C)C(=O)N1CCCC(N1)C(=O)OCC(C)(C)C2
IC50 (second compound 0.000949 µM): 15.7 nM | IC50 (second compound 0.003 µM): 12.9 nM | IC50 (second compound 0.00949 µM): 12 nM | IC50 (second compound 0.03 µM): 10.6 nM | IC50 (second compound 0.0949 µM): < 3.16 nM | IC50 (second compound 0.3 µM): < 3.16 nM | viability, T/C (second compound 0.000949 µM, first compound 0.00316 µM): 121% | viability, T/C (second compound 0.000949 µM, first compound 0.01 µM): 71.2% | viability, T/C [1]: 16.9% | viability, T/C [2]: 12.5% | viability, T/C [3]: 9.82% | viability, T/C [4]: 5.86% | viability, T/C (second compound 0.003 µM, first compound 0.00316 µM): 93.9% | viability, T/C (second compound 0.003 µM, first compound 0.01 µM): 56% | viability, T/C [5]: 29.5% | viability, T/C [6]: 19.4% | viability, T/C [7]: 14.9% | viability, T/C [8]: 8.45% | viability, T/C (second compound 0.00949 µM, first compound 0.00316 µM): 68.1% | viability, T/C (second compound 0.00949 µM, first compound 0.01 µM): 52.5% | viability, T/C [9]: 36.2% | viability, T/C [10]: 26.6% | viability, T/C [11]: 17.5% | viability, T/C [12]: 17.3% | viability, T/C (second compound 0.03 µM, first compound 0.00316 µM): 60.4% | viability, T/C (second compound 0.03 µM, first compound 0.01 µM): 49.2% | viability, T/C [13]: 40.3% | viability, T/C [14]: 31% | viability, T/C [15]: 20.8% | viability, T/C [16]: 25.1% | viability, T/C (second compound 0.0949 µM, first compound 0.00316 µM): 45.6% | viability, T/C (second compound 0.0949 µM, first compound 0.01 µM): 38.4% | viability, T/C [17]: 35.6% | viability, T/C [18]: 28.9% | viability, T/C [19]: 23.9% | viability, T/C [20]: 27.4% | viability, T/C (second compound 0.3 µM, first compound 0.00316 µM): 43.5% | viability, T/C (second compound 0.3 µM, first compound 0.01 µM): 38.8% | viability, T/C [21]: 39.7% | viability, T/C [22]: 25.9% | viability, T/C [23]: 25.9% | viability, T/C [24]: 31.7%
